{"source": "patent US9987399B2", "about": "“Non-biodegradable stent comprising a biodegradable coating and method of coating the same” (Nanyang Technological University, priority 2007, dated 2018)", "test_system": "platelets (platelet rich plasma)", "assay": "In vitro thrombogenicity/platelet adhesion, dynamic method with I-125 labeled PRP", "type": "cell-based, Human", "details": "10% loading in PLGA 80/20 coating on metal strips, 2 hours perfusion at 40 mL min^−1; FIG. 5", "protocol": "Metal strips with coatings of PLGA 80/20 containing varying amounts of triflusal (4, 7 and 10 wt %) were tested for thrombogenicity/platelet adhesion using a dynamic method. Human blood was collected and anti-coagulated. Platelet rich plasma (PRP) was then prepared from the blood, and labeled with radioactive iodine, I-125. The test samples were exposed to this labeled PRP for 2 hours under perfusion at a flow rate of 40 mL min^−1. Radioscintigraphy was then used on the washed and rinsed metal-coated strips, to count the number of adhered platelets."}
{"smiles": "CC(=O)Oc1cc(C(F)(F)F)ccc1C(=O)O", "note": "[triflusal]", "values": [{"measurement": "platelet adhesion", "value": "effective at reducing platelet adhesion"}]}
